This is an account of results in patent publication US11492335B2, “Aryl or heteroaryl triazolone derivatives or salts thereof, or pharmaceutical compositions comprising the same” (YUHAN CORPORATION, priority 2018, dated 2022).

By IC50 is commonly meant the midpoint of a concentration-inhibition curve.

Holding throughout (type): biochemical
Experiment [1] deals with T1, recombinant human MAO-B (monoamine oxidase-B) (Homo sapiens, UniProt P27338).
T1 construct: purchased Sigma-Aldrich
T1 sequence (P27338 1-520): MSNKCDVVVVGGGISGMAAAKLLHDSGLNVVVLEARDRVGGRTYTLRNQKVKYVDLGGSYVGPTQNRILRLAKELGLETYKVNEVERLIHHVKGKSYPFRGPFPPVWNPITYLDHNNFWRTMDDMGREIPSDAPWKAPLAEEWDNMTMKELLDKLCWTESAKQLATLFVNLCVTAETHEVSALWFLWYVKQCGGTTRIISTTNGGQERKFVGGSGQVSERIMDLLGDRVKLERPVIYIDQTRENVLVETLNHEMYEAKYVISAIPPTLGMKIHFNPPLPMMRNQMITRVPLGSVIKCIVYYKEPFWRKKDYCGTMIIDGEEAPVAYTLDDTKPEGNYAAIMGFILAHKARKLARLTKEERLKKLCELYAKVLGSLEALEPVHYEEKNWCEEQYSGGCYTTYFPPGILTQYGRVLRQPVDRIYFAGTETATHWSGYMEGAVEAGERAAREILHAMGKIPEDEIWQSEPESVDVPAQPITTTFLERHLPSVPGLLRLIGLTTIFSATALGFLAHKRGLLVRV
The experiment can be described thus: Activity on recombinant human MAO-B, Amplex Red method, 1 mM benzylamine substrate. The settings on record: read-out: Inhibitory Activity (IC50, nM) MAO-B. In outline: (§1)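 8-point, 1:3 dose-response, four-parameter logistic IC50 from reduction in fluorescence rate versus DMSO control. HRP/Amplex Red detection of H2O2 (ex 544, em 590 nm) after 30 min, 37 °C compound–enzyme preincubation in pH 7.4 phosphate buffer. MAO-A substrate: 0.5 mM tyramine; MAO-B: 1 mM benzylamine.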

The target of a further experiment is T2, recombinant human VAP-1 (Homo sapiens, UniProt Q16853).
T2 construct: purchased R&D systems
T2 sequence (Q16853 1-763): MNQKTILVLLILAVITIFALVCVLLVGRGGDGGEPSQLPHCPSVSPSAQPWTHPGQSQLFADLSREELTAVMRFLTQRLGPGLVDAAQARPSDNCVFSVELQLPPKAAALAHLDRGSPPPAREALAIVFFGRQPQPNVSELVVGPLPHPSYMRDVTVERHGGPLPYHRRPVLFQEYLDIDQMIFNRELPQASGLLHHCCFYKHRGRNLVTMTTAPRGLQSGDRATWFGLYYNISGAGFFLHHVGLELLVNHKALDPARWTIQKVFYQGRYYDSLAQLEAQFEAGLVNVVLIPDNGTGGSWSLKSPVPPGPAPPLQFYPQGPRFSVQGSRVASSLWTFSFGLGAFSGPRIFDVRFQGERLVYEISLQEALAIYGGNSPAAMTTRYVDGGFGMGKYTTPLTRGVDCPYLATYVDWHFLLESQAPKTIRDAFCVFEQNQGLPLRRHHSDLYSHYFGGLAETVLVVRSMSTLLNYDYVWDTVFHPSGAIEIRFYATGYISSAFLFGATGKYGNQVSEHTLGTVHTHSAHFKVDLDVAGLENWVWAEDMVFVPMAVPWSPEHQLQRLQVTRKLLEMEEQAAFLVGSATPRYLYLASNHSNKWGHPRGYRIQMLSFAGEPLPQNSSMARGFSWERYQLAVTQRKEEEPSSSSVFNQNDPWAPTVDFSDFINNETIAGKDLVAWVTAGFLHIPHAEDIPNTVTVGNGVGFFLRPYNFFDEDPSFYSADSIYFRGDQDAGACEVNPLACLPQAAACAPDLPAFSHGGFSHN
The experiment can be described thus: Activity on recombinant human VAP-1, Amplex Red HRP-coupled hydrogen peroxide assay, benzylamine substrate. The settings on record: recombinant human VAP-1, benzylamine substrate, read-out: Inhibitory Activity (IC50, nM) human VAP-1. In outline:
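Compounds were preincubated with purified enzyme in 50 mM sodium phosphate pH 7.4 at 37 °C for 30 min, then 200 uM Amplex Red, 1 mM benzylamine and 1 U/mL HRP were added. Resorufin fluorescence (ex 544/em 590 nm) was followed over 1-2 h; IC50 came from 4-parameter fits of signal-rate inhibition.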

For experiment [2], the target named is T3, recombinant human MAO-A (monoamine oxidase-A) (Homo sapiens, UniProt P21397).
T3 construct: purchased Sigma-Aldrich
T3 sequence (P21397 1-527): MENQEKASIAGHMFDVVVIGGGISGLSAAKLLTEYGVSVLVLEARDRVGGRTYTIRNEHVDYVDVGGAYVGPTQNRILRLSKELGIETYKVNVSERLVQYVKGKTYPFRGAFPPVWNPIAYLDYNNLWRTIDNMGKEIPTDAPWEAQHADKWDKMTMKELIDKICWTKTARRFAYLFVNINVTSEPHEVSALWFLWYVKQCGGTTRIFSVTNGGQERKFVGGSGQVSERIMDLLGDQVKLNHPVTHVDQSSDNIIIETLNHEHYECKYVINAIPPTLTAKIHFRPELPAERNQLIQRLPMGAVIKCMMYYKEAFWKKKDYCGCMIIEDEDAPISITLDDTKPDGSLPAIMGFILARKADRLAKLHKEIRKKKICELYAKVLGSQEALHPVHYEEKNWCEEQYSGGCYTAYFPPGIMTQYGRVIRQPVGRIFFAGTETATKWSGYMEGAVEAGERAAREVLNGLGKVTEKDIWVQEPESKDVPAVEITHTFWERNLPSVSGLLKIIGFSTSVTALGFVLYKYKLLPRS
The experiment can be described thus: Activity on recombinant human MAO-A, Amplex Red method, 0.5 mM tyramine substrate. The conditions noted are these: read-out: Inhibitory Activity (IC50, nM) MAO-A. In outline: as §1

Experiment [3] deals with T4, recombinant human DAO (diamine oxidase) (Homo sapiens, UniProt P19801).
T4 construct: purchased R&D systems
T4 sequence (P19801 20-751): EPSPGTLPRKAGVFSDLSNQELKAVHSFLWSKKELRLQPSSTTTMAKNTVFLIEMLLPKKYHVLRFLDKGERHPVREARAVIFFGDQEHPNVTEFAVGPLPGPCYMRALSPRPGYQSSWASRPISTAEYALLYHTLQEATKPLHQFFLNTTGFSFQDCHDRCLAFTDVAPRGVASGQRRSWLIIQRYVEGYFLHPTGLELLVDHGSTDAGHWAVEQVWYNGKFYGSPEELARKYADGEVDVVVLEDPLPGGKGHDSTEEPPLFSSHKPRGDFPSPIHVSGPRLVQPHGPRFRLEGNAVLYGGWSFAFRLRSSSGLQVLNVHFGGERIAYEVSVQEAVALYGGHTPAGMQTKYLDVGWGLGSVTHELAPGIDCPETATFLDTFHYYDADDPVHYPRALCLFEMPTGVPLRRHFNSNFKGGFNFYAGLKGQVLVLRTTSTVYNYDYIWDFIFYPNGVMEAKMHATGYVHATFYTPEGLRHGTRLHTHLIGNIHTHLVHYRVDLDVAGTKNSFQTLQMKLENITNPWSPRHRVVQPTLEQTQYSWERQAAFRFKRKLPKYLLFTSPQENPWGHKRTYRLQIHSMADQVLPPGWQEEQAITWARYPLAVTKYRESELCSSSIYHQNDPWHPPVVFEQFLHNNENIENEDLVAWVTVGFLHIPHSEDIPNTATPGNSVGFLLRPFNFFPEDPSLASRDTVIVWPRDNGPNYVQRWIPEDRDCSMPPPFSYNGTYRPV
The experiment in a line: Activity on recombinant human DAO, Amplex Red method, 1 mM putrescine substrate. The settings on record: recombinant human DAO, read-out: Inhibitory Activity (IC50, nM) DAO. In outline:
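Inhibition of recombinant human DAO (diamine oxidase, R&D systems) was assessed with the Amplex Red Hydrogen Peroxide Assay Kit. Hydrogen peroxide produced from 1 mM putrescine was detected through an HRP-coupled reaction that converts Amplex Red into fluorescent resorufin, read at 544 nm excitation and 590 nm emission. IC50 values came from four-parameter logistic fits in GraphPad Prism.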

The mark [4] stands for this setting: 1 mM putrescine, * = between 10 and 100 nM, ** = between 300 and 1000 nM.

Counter-ions that a name gives are not always drawn. Like-named read-outs stand apart in the source and are kept apart here.

In the case of `CC(=O)Nc1ccc(-c2ccc(-c3cccc(-n4cnn(C/C(=C/F)CN)c4=O)c3)cc2)cc1` [Example 68, N-(3″-{1-[(2E)-2-(aminomethyl)-3-fluoroprop-2-en-1-yl]-5-oxo-1,5-dihydro-4H-1,2,4-triazol-4-yl}-1,1′:4′,1″-terphenyl-4-yl)acetamide hydrochloride], the IC50 was above 10000 nM in experiment [1] (1 mM benzylamine), 0.82 nM at recombinant human VAP-1 (30 min preincubation at 37° C.), 37800 nM in experiment [2] (0.5 mM tyramine) and 2.7 nM in experiment [3] (setting [4]).
Take `Cc1cc(-n2cnn(C/C(=C/F)CN)c2=O)ncc1-c1ccc(-c2nc[nH]n2)cc1` [Example 157, 2-[(2E)-2-(aminomethyl)-3-fluoroprop-2-en-1-yl]-4-{4-methyl-5-[4-(1H-1,2,4-triazol-3-yl)phenyl]pyridin-2-yl}-2,4-dihydro-3H-1,2,4-triazol-3-one]: the IC50 in experiment [1] (1 mM benzylamine substrate) was 3790 nM; on recombinant human VAP-1, 0.3 nM; in experiment [2] (0.5 mM tyramine substrate) it was above 100000 nM; in experiment [3] (1 mM putrescine substrate), below 100 nM.
Consider `NC/C(=C\F)Cn1ncn(-c2cccc(-c3ccc(-c4noc(C5CC5)n4)cc3)c2)c1=O` [Example 63, 2-[(2E)-2-(aminomethyl)-3-fluoroprop-2-en-1-yl]-4-[4′-(5-cyclopropyl-1,2,4-oxadiazol-3-yl)biphenyl-3-yl]-2,4-dihydro-3H-1,2,4-triazol-3-one hydrochloride], for which the IC50 is above 10000 nM in experiment [1] (1 mM benzylamine), 1 nM at recombinant human VAP-1 (30 min preincubation at 37° C.), above 100000 nM in experiment [2] (0.5 mM tyramine) and below 30 nM in experiment [3] (setting [4]).
As for `Cc1cc(-c2cccc(-n3cnn(C/C(=C/F)CN)c3=O)n2)cnc1F` [Example 190, 2-[(2E)-2-(aminomethyl)-3-fluoroprop-2-en-1-yl]-4-(6′-fluoro-5′-methyl-2,3′-bipyridin-6-yl)-2,4-dihydro-3H-1,2,4-triazol-3-one hydrochloride], the IC50 in experiment [1] (1 mM benzylamine substrate) was 190 nM; at recombinant human VAP-1, 0.6 nM; in experiment [2] (0.5 mM tyramine substrate), above 100000 nM; in experiment [3] (1 mM putrescine substrate) it was 5 nM.
For the compound `CN(C)c1ccc(/C=C/c2cccc(-n3cnn(C/C(=C/F)CN)c3=O)n2)cc1` [Example 239, 2-[(E)-2-(aminomethyl)-3-fluoro-allyl]-4-[6-[(E)-2-[4-(dimethylamino)phenyl]vinyl]-2-pyridyl]-1,2,4-triazol-3-one hydrochloride], the IC50 in experiment [1] (1 mM benzylamine substrate) is 230 nM; on recombinant human VAP-1 it was 1.6 nM; in experiment [2] (0.5 mM tyramine substrate), above 100000 nM; in experiment [3] (1 mM putrescine substrate), 1600 nM.
Consider `Cc1cc(-n2cnn(C/C(=C/F)CN)c2=O)cnc1-c1ccc2c(c1)OCO2` [Example 117, 2-[(2E)-2-(aminomethyl)-3-fluoroprop-2-en-1-yl]-4-[6-(1,3-benzodioxol-5-yl)-5-methylpyridin-3-yl]-2,4-dihydro-3H-1,2,4-triazol-3-one], for which the IC50 in experiment [1] (1 mM benzylamine) is 32 nM; on recombinant human VAP-1 (30 min preincubation at 37° C.) it was 0.21 nM; in experiment [2] (0.5 mM tyramine), above 100000 nM; in experiment [3] (setting [4]), 2.5 nM.
For `Cc1cc(-n2cnn(C/C(=C/F)CN)c2=O)cnc1Br` [Example 27, 2-[(2E)-2-(aminomethyl)-3-fluoroprop-2-en-1-yl]-4-(6-bromo-5-methylpyridin-3-yl)-2,4-dihydro-3H-1,2,4-triazol-3-one hydrochloride], in that order: 63 nM, 2.5 nM, above 100000 nM and 5.4 nM.
In the case of `NC/C(=C\F)Cn1ncn(-c2cccc(-c3ccc(N4CCCC4)cc3)n2)c1=O` [Example 183, 2-[(2E)-2-(aminomethyl)-3-fluoroprop-2-en-1-yl]-4-{6-[4-(pyrrolidin-1-yl)phenyl]pyridin-2-yl}-2,4-dihydro-3H-1,2,4-triazol-3-one hydrochloride], the IC50 in experiment [1] (1 mM benzylamine substrate) is above 10000 nM; at recombinant human VAP-1 it was 2.5 nM; in experiment [2] (0.5 mM tyramine substrate), 13000 nM; in experiment [3] (1 mM putrescine substrate), 350 nM.
For `NC/C(=C\F)Cn1ncn(-c2cc(C#Cc3cccnc3)ccn2)c1=O` [Example 245, 2-[(2E)-2-(aminomethyl)-3-fluoroprop-2-en-1-yl]-4-[4-(pyridin-3-ylethynyl)pyridin-2-yl]-2,4-dihydro-3H-1,2,4-triazol-3-one hydrochloride], in that order: 300 nM, 0.9 nM, above 100000 nM and 11 nM.
For the compound `Cc1cc(-n2cnn(C/C(=C/F)CN)c2=O)ncc1-c1ccc2sc(N)nc2c1` [Example 161, 4-[5-(2-amino-1,3-benzothiazol-5-yl)-4-methylpyridin-2-yl]-2-[(2E)-2-(aminomethyl)-3-fluoroprop-2-en-1-yl]-2,4-dihydro-3H-1,2,4-triazol-3-one hydrochloride], the IC50 was 3140 nM in experiment [1] (1 mM benzylamine substrate), 6.5 nM on recombinant human VAP-1, 6240 nM in experiment [2] (0.5 mM tyramine substrate) and 2 nM in experiment [3] (1 mM putrescine substrate).
